# Experimental data from publication PMC12678798, “Discovery of an allosteric binding site for anthraquinones at the human P2X4 receptor” (Nature Communications, 2025).
# Numbering of substitutions follows the chain as printed.
# Key:
# [1] = molecular target: T1, P2X4-Q308T receptor mutant (Homo sapiens, UniProt Q99571, Q308T); experiment: cell-based
# T1 sequence (Q99571 1-388 Q308T): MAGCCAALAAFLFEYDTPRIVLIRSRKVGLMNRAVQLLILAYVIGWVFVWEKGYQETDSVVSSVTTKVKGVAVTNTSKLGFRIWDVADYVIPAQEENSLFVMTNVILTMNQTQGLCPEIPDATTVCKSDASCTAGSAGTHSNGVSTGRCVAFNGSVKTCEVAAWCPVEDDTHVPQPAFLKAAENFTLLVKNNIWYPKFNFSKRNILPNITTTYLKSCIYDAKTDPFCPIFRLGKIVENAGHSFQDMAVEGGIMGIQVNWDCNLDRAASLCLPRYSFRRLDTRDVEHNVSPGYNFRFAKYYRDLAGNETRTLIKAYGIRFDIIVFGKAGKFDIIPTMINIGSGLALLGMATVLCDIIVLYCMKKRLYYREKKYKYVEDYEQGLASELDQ
# [2] = molecular target: T2, hP2X4-E307T receptor mutant (Homo sapiens, UniProt Q99571, E307T); experiment: Two-electrode voltage clamp (TEVC), P2X4-E307T in Xenopus laevis oocytes; type: cell-based; details: TEVC at -60 mV, Xenopus oocytes, P2X4-E307T
# T2 construct: host or cells: Xenopus laevis oocytes injected with cRNA (pNKS2 vector)
# T2 sequence (Q99571 1-388 E307T): T1 sequence (Q99571 1-388 Q308T) with E307T, T308Q
# [3] = molecular target: T3, chimeric P2X4(P2X2) receptor c6^N208-S216 (Homo sapiens, UniProt Q99571, I209R/N208D/S216R/T211D/T212G); experiment: cell-based
# T3 sequence (Q99571 1-388 N208D/I209R/T211D/T212G/S216R): T1 sequence (Q99571 1-388 Q308T) with N208D, I209R, T211D, T212G, S216R, T308Q
# [4] = molecular target: T4, chimeric P2X4(P2X2) receptor c10^R301-Q308 (Homo sapiens, UniProt Q99571, A304N/D302K/DEL301-301/E307T/L303I/N306T/Q308T); experiment: ATP-induced calcium influx assay, chimeric receptor c10 in 1321N1 astrocytoma cells; type: cell-based
# T4 construct: expressed in transfected cells; gene synthesis (Geneart), pLVX-IRES-mCherry (bicistronic, mCherry not fused)
# T4 sequence (Q99571 with tags, fused parts or gaps DEL301-301/D302K/L303I/A304N/N306T/E307T/Q308T): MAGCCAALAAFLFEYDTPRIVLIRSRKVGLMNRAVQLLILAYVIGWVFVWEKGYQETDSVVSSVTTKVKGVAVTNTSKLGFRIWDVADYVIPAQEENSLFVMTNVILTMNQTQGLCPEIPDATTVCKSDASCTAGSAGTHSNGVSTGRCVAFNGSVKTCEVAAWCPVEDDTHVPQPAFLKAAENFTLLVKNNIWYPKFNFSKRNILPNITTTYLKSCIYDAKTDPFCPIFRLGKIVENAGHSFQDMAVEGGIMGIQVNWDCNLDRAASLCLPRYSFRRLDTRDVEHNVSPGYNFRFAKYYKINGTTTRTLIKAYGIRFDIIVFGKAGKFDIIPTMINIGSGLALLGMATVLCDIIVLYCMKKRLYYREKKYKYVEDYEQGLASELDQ
structure (smiles),measurement,setting,value
"Nc1ncnc2c1ncn2[C@@H]1O[C@H](COP(=O)(O)OP(=O)(O)OP(=O)(O)O)[C@@H](O)[C@H]1O [ATP, Adenosine 5′-triphosphate]",EC50,"[1]; ATP EC50, P2X4-Q308T",295 nM
same,EC50,"[1]; ATP pEC50 ± SEM, P2X4-Q308T",275 nM
same,EC50,[2],~10000 nM
same,EC50,[3],589 nM
same,EC50,[4],912 nM
same,EC50 of ATP at c10 higher than at wt P2X4,[4]; calcium influx,2.4 fold
